This is an account of results in PubChem BioAssay AID2060512 (Molecular Pharmacology Branch, DTP, NCI, 2025).

pIC50: −log10 of the molar value. Values joined by “and” are separate entries in the source; they are usually repeats but may differ in a detail not shown here. Equal entries are not always repeated.

For orientation: viability, T/C means the result in the treated group divided by that in the control group, in per cent. The pIC50 is −log10 of the IC50, conventionally taken in molar units.

For this test, the system named is 186277-243-T-J2-PDC complex spheroid viability. The test is described as follows: Anticancer human tumor 186277-243-T-J2-PDC patient-derived colon adenocarcinoma cell line growth inhibition [GQUAD]. Particulars: for viability, T/C: stronger effect = lower value. The text has this:
DNA G-quadruplex Stabilizer Agents in Combinations in Complex Spheroids
A high-throughput screen of multi-cell type tumor spheroids was designed to identify active combinations of DNA G-quadruplex stabilizer agents and targeted small molecules. Complex spheroids include a stromal component modeled by human endothelial cells (HUVEC) and fibroblasts modeled by human mesenchymal stem cells (MSCs). The concentration ranges selected for each drug and investigational agent were based upon clinically achievable concentrations if the clinical Cmax of the agent was known.
Compounds. The drugs and investigational agents: pidnarulex (CX-5461; NSC782164), APTO-253 (NSC789042), BRACO-19 (NSC847499), peposertib (NSC802822), ceralasertib (NSC780249), elimusertib (NSC800525), camonsertib (NSC841442), AZD-1390 (NSC803789), olaparib (NSC753686), talazoparib (NSC767125), ART-558 (NSC835418), sotorasib (NSC818433), MRTX-1133 (NSC836407), SN-38 (NSC673596), topotecan (NSC609699), etoposide (NSC141540), doxorubicin (NSC123127), gemcitabine (NSC613327), 5-fluorouracil (NSC19893), paclitaxel (NSC125973), vemurafenib (NSC761431), panobinostat (NSC761190), R-306465 (JNJ-16241199; NSC773264), adavosertib (NSC754352), TP-3654 (NSC805149), carboplatin (NSC241240), KSQ-4279 (NSC840948), and staurosporine (NSC755774) were obtained from the National Cancer Institute (NCI) Developmental Therapeutics Program Chemical Repository (34). The FDA-approved anticancer drug set is available from the NCI Developmental Therapeutics Program. […] The stock solutions were prepared in dimethyl sulfoxide (DMSO, Sigma-Aldrich, St. Louis, MO, cat. D2650) at 800-fold the tested concentration and stored at -70 degrees C prior to their use. All drugs and investigational agents were tested over a range starting from a high concentration at or near the clinical Cmax and decreasing in half-log increments. If the clinical Cmax for an agent had not been determined, the highest concentration tested was 10 microM.
2.3 Cell Culture. All cells were maintained in an incubator at 37 degrees C and 5% CO2 with 95% humidity. The PDC lines were cultured according to standard operating procedures established by the NCI PDMR. All PDCs were thawed and cultured in Matrigel-coated flasks prepared with a working solution of 1X Ham's F-12 nutrient mix, without supplementation (Invitrogen, cat. 11765054), 100 U/mL penicillin-streptomycin (Invitrogen, cat. 15140122), and 2.5% Matrigel (Corning Inc., cat. 354248) for the first three passages. The 857933-349-R-J2-PDC line was cultured in 6C/Colon 1B media, which includes advanced DMEM/F-12 (Thermo Fisher Scientific, cat. 12634028), 10 mM HEPES (Thermo Fisher Scientific, cat. 15630080), 1X GlutaMAX supplement (Thermo Fisher Scientific, cat. 35050061), 0.1 mg/mL primocin (InvivoGen, cat. ant-pm-2), 10% defined fetal bovine serum, heat inactivated (HyClone Laboratories Inc., cat. SH30070.03HI), 50% L-WRN conditioned media (ATCC, cat. CRL-3276), 1.25 mM N-Acetyl-L-cysteine (Sigma-Aldrich, cat. A9165), 10 mM nicotinamide (Sigma-Aldrich, cat. N0636), 1X B-27 supplement (Thermo Fisher Scientific, cat. 17504044), 1X N-2 supplement (Thermo Fisher Scientific, cat. 17502048), 10 microM Y-27632 dihydrochloride (Tocris Bioscience, cat. 1254), and 50 ng/mL human EGF recombinant protein (Thermo Fisher Scientific, cat. PHG0311). The 485176-168-R4-J1-PDC line was cultured in Panc media, which includes all 6C/Colon 1B media components plus 100 ng/mL human FGF-10 (Thermo Fisher Scientific, cat. 100-26), 500 nM SB-431542 (Selleckchem, cat. S1067), and gastrin (Tocris, cat. 3006).
[…]
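Note: spheroids exposed to drugs for 7 days.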

Take `C=CC(=O)N1CCN(c2nc(=O)n(-c3c(C)ccnc3C(C)C)c3nc(-c4c(O)cccc4F)c(F)cc23)C(C)C1` (configuration not stated): the viability, T/C reads like this: (compound 0.0316 µM) 91.3% and 93.7% and 101%; (compound 0.1 µM) 82.3% and 102% and 89.8%; (compound 0.316 µM) 94% and 91.1% and 104%; (compound 1 µM) 108% and 96.1% and 91.2%; (compound 3.16 µM) 92.6% and 117% and 98%; (compound 10 µM) 87.6% and 78.8% and 95.7%. Besides, the pIC50 (curve of compound) is less than 5.00.
Take `O=C(NO)c1cnc(N2CCN(S(=O)(=O)c3ccc4ccccc4c3)CC2)nc1` + Cc1[nH]c2ccc(F)cc2c1-c1nc2c3cccnc3c3ncccc3c2[nH]1: the negative logarithm of the IC50 (pIC50) runs as follows: (curve of first compound, second compound 0.0316 µM) 6.74; (curve of first compound, second compound 0.1 µM) 6.73; (curve of first compound, second compound 0.316 µM) 6.69; (curve of first compound, second compound 1 µM) 6.72; (curve of first compound, second compound 3.16 µM) 6.69; (curve of first compound, second compound 10 µM) 6.66. Further, the viability, T/C (second compound 0.0316 µM, first compound 0.0316 µM) is 100%; the viability, T/C (second compound 0.0316 µM, first compound 0.1 µM) is 94%; the viability, T/C (second compound 0.0316 µM, first compound 0.316 µM) was 9.84%; the viability, T/C (second compound 0.0316 µM, first compound 1 µM) was 0.27%; the viability, T/C (second compound 0.0316 µM, first compound 3.16 µM) is 0.17%; the viability, T/C (second compound 0.0316 µM, first compound 10 µM) was 0.17%. The viability, T/C by setting is: (second compound 0.1 µM, first compound 0.0316 µM) 117%; (second compound 0.1 µM, first compound 0.1 µM) 95%; (second compound 0.1 µM, first compound 0.316 µM) 12.1%; (second compound 0.1 µM, first compound 1 µM) 0.25%; (second compound 0.1 µM, first compound 3.16 µM) 0.14%; (second compound 0.1 µM, first compound 10 µM) 0.12%. The viability, T/C runs as follows: (second compound 0.316 µM, first compound 0.0316 µM) 103%; (second compound 0.316 µM, first compound 0.1 µM) 115%; (second compound 0.316 µM, first compound 0.316 µM) 13.1%; (second compound 0.316 µM, first compound 1 µM) 0.3%; (second compound 0.316 µM, first compound 3.16 µM) 0.12%; (second compound 0.316 µM, first compound 10 µM) 0.11%. In addition, the viability, T/C reads like this: (second compound 1 µM, first compound 0.0316 µM) 91.5%; (second compound 1 µM, first compound 0.1 µM) 95.1%; (second compound 1 µM, first compound 0.316 µM) 15.3%; (second compound 1 µM, first compound 1 µM) 0.34%; (second compound 1 µM, first compound 3.16 µM) 0.11%; (second compound 1 µM, first compound 10 µM) 0.13%. For the same compound, the viability, T/C (second compound 3.16 µM, first compound 0.0316 µM) was 100%; the viability, T/C (second compound 3.16 µM, first compound 0.1 µM) was 98.2%; the viability, T/C (second compound 3.16 µM, first compound 0.316 µM) is 19.7%; the viability, T/C (second compound 3.16 µM, first compound 1 µM) was 0.38%; the viability, T/C (second compound 3.16 µM, first compound 3.16 µM) is 0.14%; the viability, T/C (second compound 3.16 µM, first compound 10 µM) was 0.16%. Besides, the viability, T/C was 100% (second compound 10 µM, first compound 0.0316 µM); 98.5% (second compound 10 µM, first compound 0.1 µM); 26.7% (second compound 10 µM, first compound 0.316 µM); 0.52% (second compound 10 µM, first compound 1 µM); 0.2% (second compound 10 µM, first compound 3.16 µM); 0.22% (second compound 10 µM, first compound 10 µM).
In the case of `COc1ccc([C@@H](O)c2cc(-c3ncnc4cc(N5CCOCC5)ccc34)c(F)cc2Cl)nn1`, the viability, T/C was 97.6% and 103% (2×) (compound 0.0316 µM); 84.1% and 107% and 101% (compound 0.1 µM); 115% and 112% and 97.2% (compound 0.316 µM); 95.7% and 90.8% and 108% (compound 1 µM); 63% and 66.2% and 70% (compound 3.16 µM); 41.8% and 24.9% and 33.5% (compound 10 µM). Also, the pIC50 (curve of compound) was 5.19 and 5.31 and 5.23.
Turning to `CCCS(=O)(=O)Nc1ccc(F)c(C(=O)c2c[nH]c3ncc(-c4ccc(Cl)cc4)cc23)c1F`, the viability, T/C (compound 0.0316 µM) was 111% and 99.7% and 103%; the viability, T/C (compound 0.1 µM) was 114% and 101% and 82.2%; the viability, T/C (compound 0.316 µM) was 91.7% and 97.9% and 81.8%; the viability, T/C (compound 1 µM) is 92.4% and 78.4% and 81.4%; the viability, T/C (compound 3.16 µM) is 94.7% and 87.6% and 78.3%; the viability, T/C (compound 10 µM) is 22.4% and 25.9% and 24.6%. Besides, under “curve of compound”, the pIC50 is 5.20 and 5.21 and 5.24.
For `CC(=O)O[C@H]1C(=O)[C@@]2(C)[C@H]([C@H](OC(=O)c3ccccc3)[C@]3(O)C[C@H](OC(=O)[C@H](O)[C@@H](NC(=O)c4ccccc4)c4ccccc4)C(C)=C1C3(C)C)[C@]1(OC(C)=O)CO[C@@H]1C[C@@H]2O`, the viability, T/C by setting is: (compound 0.0316 µM) 11.9% and 17.4% and 29%; (compound 0.1 µM) 4.45% and 7.62% and 9.72%; (compound 0.316 µM) 5.05% and 6.94% and 9.26%; (compound 1 µM) 5.03% and 4.51% and 8.19%; (compound 3.16 µM) 4.85% and 4.62% and 5.67%; (compound 10 µM) 4.7% and 4.26% and 6.48%. In addition, the negative-log IC50 (pIC50) (curve of compound) is more than 7.50.
Regarding `CCc1c2c(nc3ccc(O)cc13)-c1cc3c(c(=O)n1C2)COC(=O)[C@]3(O)CC`, the viability, T/C (compound 0.000999 µM) is 88.2% and 83.6% and 97.2%; the viability, T/C (compound 0.00316 µM) was 72.1% and 57.3% and 65.1%; the viability, T/C (compound 0.00999 µM) is 50.2% and 50.4% and 45.2%; the viability, T/C (compound 0.0316 µM) is 30.8% and 29.4% and 34.3%; the viability, T/C (compound 0.0999 µM) is 21.3% and 14.5% and 21.4%; the viability, T/C (compound 0.316 µM) is 18.9% and 11.2% and 16.2%. Further, the pIC50 (curve of compound) was 8.01 and 8.15 and 8.11.
